Test results taken from patent US10597388B2, “Pyridazinone herbicides” (FMC CORPORATION, priority 2014, dated 2020).

Experiments:
Type in all cases: in vivo
[1] = test system: ragweed (common ragweed, Ambrosia elatior); assay: Test A greenhouse herbicide test, pre- and postemergence
Procedure, shortened: (§1)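 Visual injury ratings, 0 (no effect) to 100 (complete control), versus untreated plants after roughly 10 d in a greenhouse. Compounds, formulated in a surfactant-containing non-phytotoxic solvent, were sprayed on loam–sand soil after sowing (pre) or on one- to two-leaf plants 2–10 cm tall (post).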

kochia (Kochia scoparia) = assay: as above
Procedure, shortened: as §1

[2] = test system: wheat (Triticum aestivum); assay: as above; details: Postemergence
Procedure, shortened: as §1

[3] = test system: foxtail, giant (giant foxtail, Setaria faberii); assay: as above
Procedure, shortened: as §1

[4] = test system: pigweed (Amaranthus retroflexus); assay: as above
Procedure, shortened: as §1

[5] = test system: ryegrass, Italian (Italian ryegrass, Lolium multiflorum); assay: Test C greenhouse herbicide test, pre- and postemergence
Procedure, shortened: (§2)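 Visual 0–100 injury score (100 = complete control) taken against untreated controls after 13–15 d in greenhouse. Test chemicals, formulated in solvent plus surfactant, applied preemergence to seeds in loam–sand soil or postemergence to 1- to 4-leaf plants (2–18 cm).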

[6] = test system: velvetleaf (Abutilon theophrasti); assay: as above
Procedure, shortened: as §2

corn (Zea mays) = assay: as above
Procedure, shortened: as §2

[7] = test system: blackgrass (Alopecurus myosuroides); assay: as above
Procedure, shortened: as §2

[8] = test system: morningglory (Ipomoea coccinea); assay: as above
Procedure, shortened: as §2

[9] = test system: pigweed (Amaranthus retroflexus); assay: as above
Procedure, shortened: as §2

[10] = Postemergence, 125 g ai/ha, 0 to 100 scale where 0 is no effect and 100 is complete control
[11] = Postemergence, 500 g ai/ha, visual rating after approx. 10 d, 0 to 100 scale (0 no effect, 100 complete control)
[12] = Preemergence, 500 g ai/ha, 0 to 100 scale where 0 is no effect and 100 is complete control
[13] = Preemergence, 125 g ai/ha, 0 to 100 scale where 0 is no effect and 100 is complete control
[14] = 125 g ai/ha, 0 to 100 scale where 0 is no effect and 100 is complete control
[15] = 500 g ai/ha, visual rating after approx. 10 d, 0 to 100 scale (0 no effect, 100 complete control)
[16] = 4 g ai/ha, preemergence, visual rating, scale 0 to 100 (0 no effect, 100 complete control), 13 to 15 d
[17] = Postemergence, 8 g ai/ha, scale 0 to 100 (0 no effect, 100 complete control)
[18] = Postemergence, 16 g ai/ha, scale 0 to 100 (0 no effect, 100 complete control)
[19] = Postemergence, 31 g ai/ha, scale 0 to 100 (0 no effect, 100 complete control)
[20] = Preemergence, 16 g ai/ha, scale 0 to 100, 0 is no effect, 100 is complete control
[21] = Preemergence, 31 g ai/ha, scale 0 to 100, 0 is no effect, 100 is complete control
[22] = Postemergence, 4 g ai/ha, scale 0 to 100 (0 no effect, 100 complete control)
[23] = Preemergence, 8 g ai/ha, scale 0 to 100, 0 is no effect, 100 is complete control
[24] = Postemergence, 62 g ai/ha, 0 to 100 scale (0 no effect, 100 complete control)
[25] = Postemergence, 250 g ai/ha, scale 0 to 100, 0 no effect, 100 complete control, 13 to 15 d
[26] = Preemergence, 62 g ai/ha, scale 0 to 100, 0 is no effect, 100 is complete control
[27] = Preemergence, 125 g ai/ha, scale 0 to 100, 0 is no effect, 100 is complete control
[28] = Preemergence, 250 g ai/ha, scale 0 to 100, 0 no effect, 100 complete control
[29] = postemergence, 125 g ai/ha, scale 0 to 100, 0 no effect, 100 complete control
[30] = Postemergence, 125 g ai/ha, 0 to 100 scale, 0 no effect, 100 complete control
[31] = Preemergence, 125 g ai/ha, visual injury rating, 0 to 100 scale (0 no effect, 100 complete control), approx. 10 d

Cc1ccc2ccc(Cl)cc2c1-c1c(O)c(C)nn(C)c1=O [Compound 144]
Plant response rating, Ragweed [1, 10]: 100
Plant response rating, Ragweed [1, 11]: 100
Plant response rating, Ragweed [1, 12]: 100
Plant response rating, Kochia (kochia (Kochia scoparia); [10]): 100
Plant response rating, Kochia (kochia (Kochia scoparia); [11]): 100
Kochia plant response rating (kochia (Kochia scoparia); [13]): 100
Plant response rating, Kochia (kochia (Kochia scoparia); [12]): 100
Plant response rating, Wheat [2, 14]: 90
Plant response rating, Wheat [2, 15]: 100
Plant response rating, Foxtail, Giant [3, 10]: 100
Plant response rating, Foxtail, Giant [3, 11]: 100
Foxtail, Giant plant response rating [3, 13]: 100
Plant response rating, Foxtail, Giant [3, 12]: 100
Plant response rating, Pigweed [4, 10]: 100
Plant response rating, Pigweed [4, 11]: 100
Pigweed plant response rating [4, 13]: 100
Plant response rating, Pigweed [4, 12]: 100
Plant response rating, Ryegrass, Italian [5, 16]: 80
Plant response rating, Ryegrass, Italian [5, 17]: 35
Ryegrass, Italian plant response rating [5, 17]: 20
Plant response rating, Ryegrass, Italian [5, 18]: 45
Plant response rating, Ryegrass, Italian [5, 19]: 70
Plant response rating, Ryegrass, Italian [5, 20]: 100
Plant response rating, Ryegrass, Italian [5, 21]: 100
Plant response rating, Velvetleaf [6, 16]: 25
Plant response rating, Velvetleaf [6, 17]: 70
Velvetleaf plant response rating [6, 17]: 50
Plant response rating, Velvetleaf [6, 18]: 90
Plant response rating, Velvetleaf [6, 19]: 85
Plant response rating, Velvetleaf [6, 20]: 85
Plant response rating, Velvetleaf [6, 21]: 90
Plant response rating, Corn (corn (Zea mays); [16]): 0
Plant response rating, Corn (corn (Zea mays); [22]): 0
Plant response rating, Corn (corn (Zea mays); [17]): 0
Plant response rating, Corn (corn (Zea mays); [18]): 5
Plant response rating, Corn (corn (Zea mays); [19]): 30
Plant response rating, Corn (corn (Zea mays); [23]): 0
Plant response rating, Corn (corn (Zea mays); [20]): 0
Plant response rating, Corn (corn (Zea mays); [21]): 0
Plant response rating, Blackgrass [7, 16]: 30
Plant response rating, Blackgrass [7, 22]: 30
Plant response rating, Blackgrass [7, 17]: 30
Plant response rating, Blackgrass [7, 18]: 20
Plant response rating, Blackgrass [7, 19]: 35
Plant response rating, Blackgrass [7, 23]: 55
Plant response rating, Blackgrass [7, 20]: 70
Plant response rating, Blackgrass [7, 21]: 90
Plant response rating, Morningglory [8, 16]: 25
Morningglory plant response rating [8, 17]: 90
Plant response rating, Morningglory [8, 17]: 95
Plant response rating, Morningglory [8, 18]: 98
Plant response rating, Morningglory [8, 19]: 98
Plant response rating, Morningglory [8, 20]: 80
Plant response rating, Morningglory [8, 21]: 90
Plant response rating, Pigweed [9, 16]: 75
Pigweed plant response rating [9, 17]: 80
Plant response rating, Pigweed [9, 17]: 85
Plant response rating, Pigweed [9, 18]: 85
Plant response rating, Pigweed [9, 19]: 90
Plant response rating, Pigweed [9, 20]: 100
Plant response rating, Pigweed [9, 21]: 100

COC(=O)Oc1c(C)nn(C)c(=O)c1-c1ccc(Br)c2ccccc12 [Compound 145]
Plant response rating, Ragweed [1, 10]: 100
Plant response rating, Ragweed [1, 11]: 100
Plant response rating, Ragweed [1, 12]: 100
Plant response rating, Kochia (kochia (Kochia scoparia); [10]): 100
Plant response rating, Kochia (kochia (Kochia scoparia); [11]): 100
Kochia plant response rating (kochia (Kochia scoparia); [13]): 90
Plant response rating, Kochia (kochia (Kochia scoparia); [12]): 100
Plant response rating, Wheat [2, 14]: 20
Plant response rating, Wheat [2, 15]: 30
Plant response rating, Foxtail, Giant [3, 10]: 20
Plant response rating, Foxtail, Giant [3, 11]: 80
Foxtail, Giant plant response rating [3, 13]: 30
Plant response rating, Foxtail, Giant [3, 12]: 90
Plant response rating, Pigweed [4, 10]: 100
Plant response rating, Pigweed [4, 11]: 100
Pigweed plant response rating [4, 13]: 90
Plant response rating, Pigweed [4, 12]: 100
Plant response rating, Ryegrass, Italian [5, 19]: 5
Ryegrass, Italian plant response rating [5, 24]: 15
Plant response rating, Ryegrass, Italian [5, 25]: 40
Plant response rating, Ryegrass, Italian [5, 21]: 100
Plant response rating, Ryegrass, Italian [5, 26]: 100
Plant response rating, Ryegrass, Italian [5, 27]: 100
Ryegrass, Italian plant response rating [5, 28]: 100
Ryegrass, Italian plant response rating [5, 29]: 30
Plant response rating, Velvetleaf [6, 19]: 85
Velvetleaf plant response rating [6, 24]: 90
Plant response rating, Velvetleaf [6, 25]: 100
Plant response rating, Velvetleaf [6, 21]: 40
Plant response rating, Velvetleaf [6, 26]: 85
Plant response rating, Velvetleaf [6, 27]: 95
Velvetleaf plant response rating [6, 28]: 100
Velvetleaf plant response rating [6, 29]: 98
Plant response rating, Corn (corn (Zea mays); [19]): 10
Corn plant response rating (corn (Zea mays); [24]): 5
Plant response rating, Corn (corn (Zea mays); [25]): 10
Plant response rating, Corn (corn (Zea mays); [21]): 0
Plant response rating, Corn (corn (Zea mays); [26]): 0
Plant response rating, Corn (corn (Zea mays); [27]): 0
Corn plant response rating (corn (Zea mays); [28]): 15
Corn plant response rating (corn (Zea mays); [29]): 5
Plant response rating, Blackgrass [7, 19]: 5
Blackgrass plant response rating [7, 24]: 0
Plant response rating, Blackgrass [7, 25]: 90
Plant response rating, Blackgrass [7, 21]: 10
Plant response rating, Blackgrass [7, 26]: 30
Plant response rating, Blackgrass [7, 27]: 60
Blackgrass plant response rating [7, 28]: 60
Blackgrass plant response rating [7, 29]: 30
Plant response rating, Morningglory [8, 19]: 95
Morningglory plant response rating [8, 24]: 98
Plant response rating, Morningglory [8, 25]: 100
Plant response rating, Morningglory [8, 21]: 75
Plant response rating, Morningglory [8, 26]: 80
Plant response rating, Morningglory [8, 27]: 98
Morningglory plant response rating [8, 28]: 100
Morningglory plant response rating [8, 29]: 100
Plant response rating, Pigweed [9, 19]: 70
Pigweed plant response rating [9, 24]: 100
Plant response rating, Pigweed [9, 25]: 100
Plant response rating, Pigweed [9, 21]: 70
Plant response rating, Pigweed [9, 26]: 98
Plant response rating, Pigweed [9, 27]: 100
Pigweed plant response rating [9, 28]: 100
Pigweed plant response rating [9, 29]: 75

CC(=O)Oc1c(Cl)nn(C)c(=O)c1-c1c(C)sc2ccc(C(F)(F)F)cc12 [Compound 152]
Plant response rating, Ragweed [1, 30]: 70
Plant response rating, Ragweed [1, 11]: 90
Plant response rating, Ragweed [1, 31]: 80
Plant response rating, Ragweed [1, 12]: 100
Plant response rating, Kochia (kochia (Kochia scoparia); [30]): 30
Plant response rating, Kochia (kochia (Kochia scoparia); [11]): 40
Plant response rating, Kochia (kochia (Kochia scoparia); [31]): 30
Plant response rating, Kochia (kochia (Kochia scoparia); [12]): 70
Plant response rating, Wheat ([2]; 125 g ai/ha, 0 to 100 scale, 0 no effect, 100 complete control): 30
Plant response rating, Wheat [2, 15]: 50
Plant response rating, Foxtail, Giant [3, 30]: 30
Plant response rating, Foxtail, Giant [3, 11]: 50
Plant response rating, Foxtail, Giant [3, 31]: 40
Plant response rating, Foxtail, Giant [3, 12]: 90
Plant response rating, Pigweed [4, 30]: 50
Plant response rating, Pigweed [4, 11]: 60
Plant response rating, Pigweed [4, 31]: 90
Plant response rating, Pigweed [4, 12]: 90
Plant response rating, Ryegrass, Italian [5, 21]: 10
Plant response rating, Ryegrass, Italian [5, 26]: 50
Plant response rating, Ryegrass, Italian [5, 27]: 90
Ryegrass, Italian plant response rating [5, 28]: 90
Plant response rating, Velvetleaf [6, 21]: 15
Plant response rating, Velvetleaf [6, 26]: 40
Plant response rating, Velvetleaf [6, 27]: 65
Velvetleaf plant response rating [6, 28]: 75
Plant response rating, Corn (corn (Zea mays); [21]): 15
Plant response rating, Corn (corn (Zea mays); [26]): 10
Plant response rating, Corn (corn (Zea mays); [27]): 10
Corn plant response rating (corn (Zea mays); [28]): 15
Plant response rating, Blackgrass [7, 21]: 5
Plant response rating, Blackgrass [7, 26]: 5
Plant response rating, Blackgrass [7, 27]: 30
Blackgrass plant response rating [7, 28]: 35
Plant response rating, Morningglory [8, 21]: 10
Plant response rating, Morningglory [8, 26]: 40
Plant response rating, Morningglory [8, 27]: 75
Morningglory plant response rating [8, 28]: 90
Plant response rating, Pigweed [9, 21]: 80
Plant response rating, Pigweed [9, 26]: 100
Plant response rating, Pigweed [9, 27]: 100
Pigweed plant response rating [9, 28]: 100
